Results reported in the supplement of paper PMC10307832.

How the values were obtained:
Test in all cases: relative viability (nuclei count vs DMSO), 5 days (fraction); higher = more cells survive
Vismodegib + Decitabine = compound: CS(=O)(=O)c1ccc(C(=O)Nc2ccc(Cl)c(-c3ccccn3)c2)c(Cl)c1 [Vismodegib] + Nc1ncn([C@H]2C[C@H](O)[C@@H](CO)O2)c(=O)n1 [Decitabine] (partner 2 µM)
In short: (§1)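 Dosing by pin tool came one day after lung cancer cell lines were seeded in 1536-well plates, using either one drug or a fixed anchor-drug dose plus five library-drug doses (not always all listed) in √10 steps. After 5 days, nuclei were counted on 4× images. Relative viability is treated-well nuclei count divided by vehicle-well nuclei count, and values are medians of duplicate plates.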

Ruxolitinib + Vorinostat = compound: N#CC[C@H](C1CCCC1)n1cc(-c2ncnc3[nH]ccc23)cn1 [Ruxolitinib] + O=C(CCCCCCC(=O)Nc1ccccc1)NO [Vorinostat] (partner 1 µM)
In short: as §1

[1] = compound: N#CC[C@H](C1CCCC1)n1cc(-c2ncnc3[nH]ccc23)cn1 [Ruxolitinib] + CC(=O)c1c(C)c2cnc(Nc3ccc(N4CCNCC4)cn3)nc2n(C2CCCC2)c1=O [Palbociclib] (partner 0.5 µM)
In short: as §1

Vismodegib + Alpelisib = compound: CS(=O)(=O)c1ccc(C(=O)Nc2ccc(Cl)c(-c3ccccn3)c2)c(Cl)c1 [Vismodegib] + Cc1nc(NC(=O)N2CCC[C@H]2C(N)=O)sc1-c1ccnc(C(C)(C)C(F)(F)F)c1 [Alpelisib] (partner 2 µM)
In short: as §1

| Cell Line | relative viability (Vismodegib + Decitabine; first compound 0.08 µM) | relative viability (Vismodegib + Decitabine; first compound 0.253 µM) | relative viability (Vismodegib + Decitabine; first compound 0.8 µM) | relative viability (Vismodegib + Decitabine; first compound 2.53 µM) | relative viability (Vismodegib + Decitabine; first compound 8 µM) | relative viability (Ruxolitinib + Vorinostat; first compound 0.08 µM) | relative viability (Ruxolitinib + Vorinostat; first compound 0.253 µM) | relative viability (Ruxolitinib + Vorinostat; first compound 0.8 µM) | relative viability (Ruxolitinib + Vorinostat; first compound 2.53 µM) | relative viability (Ruxolitinib + Vorinostat; first compound 8 µM) | relative viability ([1]; first compound 0.08 µM) | relative viability ([1]; first compound 0.253 µM) | relative viability ([1]; first compound 0.8 µM) | relative viability ([1]; first compound 2.53 µM) | relative viability ([1]; first compound 8 µM) | relative viability (Vismodegib + Alpelisib; first compound 0.08 µM) | relative viability (Vismodegib + Alpelisib; first compound 0.253 µM) | relative viability (Vismodegib + Alpelisib; first compound 0.8 µM) | relative viability (Vismodegib + Alpelisib; first compound 2.53 µM) | relative viability (Vismodegib + Alpelisib; first compound 8 µM) |
| --- | --- | --- | --- | --- | --- | --- | --- | --- | --- | --- | --- | --- | --- | --- | --- | --- | --- | --- | --- | --- |
| HCC-78 | 0.561 | 0.736 | 0.661 | 0.698 | 0.786 | 0.412 | 0.455 | 0.429 | 0.439 | 0.395 | 0.422 | 0.481 | 0.431 | 0.507 | 0.492 | 0.369 | 0.346 | 0.267 | 0.359 | 0.362 |
| NCI-H1734 | 0.466 | 0.437 | 0.47 | 0.505 | 0.499 | 0.886 | 0.806 | 0.902 | 0.797 | 0.863 | 0.374 | 0.299 | 0.337 | 0.345 | 0.354 | 0.651 | 0.586 | 0.661 | 0.63 | 0.719 |
| COR-L23 | 0.413 | 0.429 | 0.505 | 0.441 | 0.41 | 0.579 | 0.347 | 0.463 | 0.403 | 0.287 | 0.343 | 0.273 | 0.371 | 0.248 | 0.222 | 0.77 | 0.672 | 0.689 | 0.756 | 0.819 |
